Like-named read-outs stand apart in the source and are kept apart here.
Tests used:
[1] = cited from earlier work
Text: As a result, severely underweight patients may theoretically be at risk of drug overexposure when treated with the conventional 1 ...

Corynebacterium striatum = assay: Clinical course of prosthetic aortic valve infective endocarditis under dalbavancin therapy; format: in vivo, human; conditions: single patient
Text: (§1) We report the case of a patient who required initiation of dalbavancin therapy in November 2024 for infective endocarditis of a biological aortic valve (replaced April 2024) caused by Corynebacterium striatum. […] Due to a high surgical risk, the patient was deemed ineligible for repeat cardiac surgery.
The eighth dalbavancin dose was scheduled 50 days after the previous administration.

[2] = Therapeutic drug monitoring of dalbavancin plasma concentrations (Cmin, Cmax) in a severely underweight patient; format: in vivo, human
Protocol: Following multidisciplinary consultation, a dosing regimen of dalbavancin 1000 mg administered on day 1 and day 8 was initiated. Subsequent dosing intervals were guided based on TDM results, assessing both minimum (Cmin, within 1 h before the injection) and maximum (Cmax, 30–60 min after the end of infusion) dalbavancin plasma concentrations, as previously described.[3],[4] Cmin and Cmax values were incorporated into log-linear regression models by plotting the logarithm of dalbavancin plasma concentrations against time, to estimate individualized timing of subsequent doses, with the aim of maintaining Cmin levels above 8 mg/L (based on a breakpoint MIC of […]).[3–7],[9]
The quantification of dalbavancin plasma concentrations was performed using a previously validated liquid chromatography–tandem mass spectrometry method.[10] The volume of distribution was estimated as the ratio between the dalbavancin dose and the mean Cmax concentration. Written informed consent for all medical procedures and interventions performed in accordance with clinical practice was obtained from the patient.

[3] = Tolerability of earlier antibiotic therapy in the patient; format: in vivo, human; conditions: single patient, treatment before the start of dalbavancin
Text: as §1

| Compound | volume of distribution ([1]; normal-weight individuals) [L] | volume of distribution ([1]; obese individuals) [L] | volume of distribution ([1]; overweight individuals) [L] | PET scan finding (Corynebacterium striatum; PET scan 6 months after initiation of dalbavancin therapy) | clinical status at last follow-up visit (Corynebacterium striatum; last follow-up visit after seven dalbavancin administrations, negative inflammatory markers) | Cmin (minimum dalbavancin plasma concentration) ([2]; patient, 28-38 kg, 1000 mg on day 1 and day 8, then TDM-guided intervals, seven administrations over 217 days, sampled within 1 h before the injection, plasma, LC-MS/MS, at each TDM assessment) | volume of distribution, range ([2]; severely underweight patient (28-38 kg), dose/Cmax, range over the observation period) [L] | mean volume of distribution ([2]; severely underweight patient (28-38 kg), ratio between dalbavancin dose and mean Cmax (30-60 min after end of infusion), plasma LC-MS/MS, mean ± spread over administrations) [L] | volume of distribution (approximate, as discussed) ([2]; severely underweight patient, markedly reduced compared with reported values) [L] | tolerability in the patient [3] |
| --- | --- | --- | --- | --- | --- | --- | --- | --- | --- | --- |
| CN[C@H]1C(=O)N[C@@H]2Cc3ccc(cc3)Oc3cc4cc(c3O[C@@H]3O[C@H](C(=O)O)[C@@H](O)[C@H](O)[C@H]3NC(=O)CCCCCCCCC(C)C)Oc3ccc(cc3Cl)[C@@H](O)[C@@H]3NC(=O)[C@H](NC(=O)[C@@H]4NC(=O)[C@@H](NC2=O)c2cc(cc(O)c2Cl)Oc2cc1ccc2O)c1ccc(O)c(c1)-c1c(O[C@H]2O[C@H](CO)[C@@H](O)[C@H](O)[C@@H]2O)cc(O)cc1[C@@H](C(=O)NCCCN(C)C)NC3=O [dalbavancin, Dalbavancin] | 3 to 4 | 6 to 7 | 4 to 5 | stability of the infectious process | no fever or signs of systemic infection | exceeded 8 mg/L | 2.2 to 3.1 | 2.7 ± 0.4 | 2 to 3 | – |
| vancomycin | – | – | – | – | – | – | – | – | – | discontinued due to a cutaneous adverse reaction |
